Reference: patent US10329282B2, “Rho-associated protein kinase inhibitor, pharmaceutical composition comprising the same, as well as preparation method and use thereof” (Beijing Tide Pharmaceutical Co., Ltd., priority 2017, dated 2019)

Molecular target: ROCK2 (Homo sapiens (Human), UniProt O75116)
Assay: ROCK2 kinase IC50 assay (CISBIO HTRF KinEASE-STK S2 kit)
Format: biochemical
Settings: ROCK2 from Carna Biosciences, 2 h incubation at room temperature
Procedure: The kinase IC50 was determined by a commercialized CISBIO kinase detection kit, HTRF KinEASE-STK S2 kit (62ST2PEC). ROCK2 (01-119) employed in the reaction was purchased from Carna Biosciences.
Before the assay, the following working solutions as needed were formulated with corresponding reagents according to the instruction of the kinase detection kit: 1×kinase buffer, 5×STK-52 substrate working solution (1.5 μM) and 5×ATP working solution (1.5 μM), 5×ROCK2 kinase working solution, 4×Streptavidin-XL665 working solution, and 4×STK-Ab-Cryptate 2 detection solution. Then the assay was performed according to the following procedure.
A solution of a compound at a concentration of 10000 nM was prepared with the 1×kinase buffer containing 2.5% DMSO. Gradient dilution of the solution of the compound was performed with the kinase buffer containing DMSO, so as to obtain solutions of a test compound at 9 different concentrations. In addition to wells of test compounds, a positive well (containing all the reagents except the compound) and a negative well (containing all the reagents except the test compound and kinase) were set. Except for the control wells (positive and negative wells), a solution of a test compound (4 μL) was added to each of the reaction wells, and a solution of 2.5% DMSO was added to the control wells. Then the substrate (2 μM, i.e., 2 μL 5×STK-S2 substrate working solution) was added to each of the reaction wells. The 5×ROCK2 kinase working solution (2 μL, containing 1.4 ng ROCK2 kinase) was added to each of the reaction wells except for the negative well, the volume of which was made up with the 1×kinase buffer (2 μL). The 5×ATP working solution (2 μL) was added to each of the reaction wells, and the mixtures were incubated at room temperature for 2 hours. After the kinase reaction was complete, the 4×Streptavidin-XL665 working solution was added to each of the reaction wells, the solutions were mixed, followed by immediate addition of the 4×STK-Ab-Cryptate 2 detection solution (5 μL), and the mixtures were incubated at room temperature for 1 hour. The fluorescence signal was read on ENVISION (Perkinelmer) (excitation wavelength: 320 nm, and emission wavelength: 665 nm and 615 nm). The inhibitory rate in each well was calculated based on the fluorescence intensity value: ER (Emission Ratio)=(fluorescence intensity at 665 nm/fluorescence intensity at 615 nm); inhibitory rate=(ERpositive−ERtest compound) (ERpositive−ERnegative)*100%. Curves were plotted and fitted to obtain the median inhibitory concentration (IC50) of each teat compound with the PRISM 5.0 software.

ROCK2, sequence (O75116 1-553): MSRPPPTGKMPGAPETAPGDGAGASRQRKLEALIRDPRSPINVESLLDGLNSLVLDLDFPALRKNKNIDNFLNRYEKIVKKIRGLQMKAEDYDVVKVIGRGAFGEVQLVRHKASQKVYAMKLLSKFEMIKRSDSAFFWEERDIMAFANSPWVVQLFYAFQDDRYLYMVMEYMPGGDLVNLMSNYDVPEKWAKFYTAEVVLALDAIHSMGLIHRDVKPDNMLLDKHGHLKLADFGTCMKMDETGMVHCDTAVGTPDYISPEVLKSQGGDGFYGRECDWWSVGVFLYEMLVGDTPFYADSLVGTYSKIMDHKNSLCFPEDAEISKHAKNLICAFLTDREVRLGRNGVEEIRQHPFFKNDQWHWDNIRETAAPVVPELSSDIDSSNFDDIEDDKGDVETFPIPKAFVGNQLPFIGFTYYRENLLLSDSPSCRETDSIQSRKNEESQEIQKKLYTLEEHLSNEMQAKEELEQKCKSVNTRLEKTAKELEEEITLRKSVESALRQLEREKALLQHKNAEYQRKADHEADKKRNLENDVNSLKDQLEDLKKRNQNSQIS

IC50 [nM]	Structure (SMILES)
110	CC(C)NC(=O)c1cc2ccc(-c3nccc(Nc4ccc5[nH]ncc5c4)n3)cc2o1 [TDI01102, 6-(4-((1H-indazol-5-yl)amino)pyrimidin-2-yl)-N-isopropylbenzofuran-2-carboxamide]
167	CC(C)NC(=O)C1COc2ccc(-c3nccc(Nc4ccc5[nH]ncc5c4)n3)cc2O1 (stereo not shown) [TDI01103, 7-(4-((1H-indazol-5-yl)amino)pyrimidin-2-yl)-N-isopropyl-2,3-dihydrobenzo[b][1,4]dioxine-2-carboxamide]
71	CC(C)NC(=O)c1cc2ccc(-c3nccc(Nc4ccc5[nH]ncc5c4)n3)cc2s1 [TDI01104, 6-(4-((1H-indazol-5-yl)amino)pyrimidin-2-yl)-N-isopropylbenzo[b]thiophene-2-carboxamide]
112	CC(C)NC(=O)c1ccc2cc(-c3nccc(Nc4ccc5[nH]ncc5c4)n3)sc2c1 [TDI01106, 2-(4-((1H-indazol-5-yl)amino)pyrimidin-2-yl)-N-isopropylbenzo[b]thiophene-6-carboxamide]
22	CC(C)NC(=O)c1cc2ccc(-c3nccc(Nc4ccc5[nH]ncc5c4)n3)cc2[nH]1 [TDI01108, 6-(4-((1H-indazol-5-yl)amino)pyrimidin-2-yl)-N-isopropyl-1H-indole-2-carboxamide]
447	CNC(=O)c1cc2ccc(-c3nccc(Nc4ccc5[nH]ncc5c4)n3)cc2s1 [TDI01109, 6-(4-((1H-indazol-5-yl)amino)pyrimidin-2-yl)-N-methylbenzo[b]thiophene-2-carboxamide]
422	CN(C)C(=O)c1cc2ccc(-c3nccc(Nc4ccc5[nH]ncc5c4)n3)cc2s1 [TDI01110, 6-(4-((1H-indazol-5-yl)amino)pyrimidin-2-yl)-N,N-dimethylbenzo[b]thiophene-2-carboxamide]
100	O=C(NC1CC1)c1cc2ccc(-c3nccc(Nc4ccc5[nH]ncc5c4)n3)cc2s1 [TDI01111, 6-(4-((1H-indazol-5-yl)amino)pyrimidin-2-yl)-N-cyclopropylbenzo[b]thiophene-2-carboxamide]
185	O=C(NC1CCCCC1)c1cc2ccc(-c3nccc(Nc4ccc5[nH]ncc5c4)n3)cc2s1 [TDI01112, 6-(4-((1H-indazol-5-yl)amino)pyrimidin-2-yl)-N-cyclohexylbenzo[b]thiophene-2-carboxamide]
42	O=C(NC1CCOC1)c1cc2ccc(-c3nccc(Nc4ccc5[nH]ncc5c4)n3)cc2s1 (stereo not shown) [TDI01113, 6-(4-((1H-indazol-5-yl)amino)pyrimidin-2-yl)-N-(tetrahydrofuran-3-yl)benzo[b]thiophene-2-carboxamide]
157	CN1CCC(NC(=O)c2cc3ccc(-c4nccc(Nc5ccc6[nH]ncc6c5)n4)cc3s2)CC1 [TDI01114, 6-(4-((1H-indazol-5-yl)amino)pyrimidin-2-yl)-N-(1-methylpiperidin-4-yl)benzo[b]thiophene-2-carboxamide]
470	CC(C)NC(=O)c1cc2ccc(-c3nc(Nc4ccc5[nH]ncc5c4)cc(OCCN(C)C)n3)cc2s1 [TDI01121, 6-(4-((1H-indazol-5-yl)amino)-6-(2-(dimethylamino)ethoxy)pyrimidin-2-yl)-N-isopropylbenzo[b]thiophene-2-carboxamide]
219	CC(C)NC(=O)c1cc2ccc(-c3nc(Nc4ccc5[nH]ncc5c4)c4ccn(CCN(C)C)c4n3)cc2s1 [TDI01122, 6-(4-((1H-indazol-5-yl)amino)-7-(2-(dimethylamino)ethyl)-7H-pyrrolo[2,3-d]pyrimidin-2-yl)-N-isopropylbenzo[b]thiophene-2-carboxamide]
100	CC(C)NC(=O)c1ccc2cc(-c3nccc(Nc4ccc5[nH]ncc5c4)n3)[nH]c2c1 [TDI01127, 2-(4-((1H-indazol-5-yl)amino)pyrimidin-2-yl)-N-isopropyl-1H-indole-6-carboxamide]
145	CC(C)NC(=O)c1cc2ccc(-c3nc(Nc4ccc5[nH]ncc5c4)c4ccccc4n3)cc2[nH]1 [TDI01128, 6-(4-((1H-indazol-5-yl)amino)quinazolin-2-yl)-N-isopropyl-1H-indole-2-carboxamide]
33	COC(=O)c1ccc(NC(=O)c2cc3ccc(-c4nccc(Nc5ccc6[nH]ncc6c5)n4)cc3[nH]2)cc1 [TDI01130, methyl 4-(6-(4-((1H-indazol-5-yl)amino)pyrimidin-2-yl)-1H-indole-2-carboxamido)benzoate]

IC50 [nM]	Structure (SMILES)
101	CN1CCN(c2ccc(NC(=O)c3cc4ccc(-c5nccc(Nc6ccc7[nH]ncc7c6)n5)cc4[nH]3)cc2)CC1 [TDI01131, 6-(4-((1H-indazol-5-yl)amino)pyrimidin-2-yl)-N-(4-(4-methylpiperazin-1-yl)phenyl)-1H-indole-2-carboxamide]
62	Cn1cc(NC(=O)c2cc3ccc(-c4nccc(Nc5ccc6[nH]ncc6c5)n4)cc3[nH]2)cn1 [TDI01134, 6-(4-((1H-indazol-5-yl)amino)pyrimidin-2-yl)-N-(1-methyl-1H-pyrazol-4-yl)-1H-indole-2-carboxamide]
123	CC(C)NC(=O)c1cc2ccc(-c3nc(Nc4ccc5[nH]ncc5c4)c4occc4n3)cc2s1 [TDI01135, 6-(4-((1H-indazol-5-yl)amino)furo[3,2-d]pyrimidin-2-yl)-N-isopropylbenzo[b]thiophene-2-carboxamide]
66	CC(C)NC(=O)c1cc2ccc(-c3nc(Nc4ccc5[nH]ncc5c4)c4sccc4n3)cc2s1 [TDI01136, 6-(4-((1H-indazol-5-yl)amino)thieno[3,2-d]pyrimidin-2-yl)-N-isopropylbenzo[b]thiophene-2-carboxamide]
109	CC(NC(=O)c1cc2ccc(-c3nccc(Nc4ccc5[nH]ncc5c4)n3)cc2[nH]1)c1ccccc1 (stereo not shown) [TDI01140, 6-(4-((1H-indazol-5-yl)amino)pyrimidin-2-yl)-N-(1-phenylethyl)-1H-indole-2-carboxamide]
73	CC(C)NC(=O)c1cc2ccc(-c3nc(Nc4ccc5[nH]ncc5c4)c4sccc4n3)cc2[nH]1 [TDI01141, 6-(4-((1H-indazol-5-yl)amino)thieno[3,2-d]pyrimidin-2-yl)-N-isopropyl-1H-indole-2-carboxamide]
225	CC(C)NC(=O)c1cc2ccc(-c3nc(Nc4ccc5[nH]ncc5c4)c4ccsc4n3)cc2[nH]1 [TDI01142, 6-(4-((1H-indazol-5-yl)amino)thieno[2,3-d]pyrimidin-2-yl)-N-isopropyl-1H-indole-2-carboxamide]
72	CC(C)NC(=O)c1cc2ccc(-c3nc(Nc4ccc5[nH]ncc5c4)c4cc[nH]c4n3)cc2[nH]1 [TDI01143, 6-(4-((1H-indazol-5-yl)amino)-7H-pyrrolo[2,3-d]pyrimidin-2-yl)-N-isopropyl-1H-indole-2-carboxamide]
100	CC(C)NC(=O)c1cc2ccc(-c3nc(Nc4ccc5[nH]ncc5c4)c4scnc4n3)cc2[nH]1 [TDI01149, 6-(7-((1H-indazol-5-yl)amino)thiazolo[4,5-d]pyrimidin-5-yl)-N-isopropyl-1H-indole-2-carboxamide]
45	O=C(NC1CC1)c1cc2ccc(-c3nccc(Nc4ccc5[nH]ncc5c4)n3)cc2[nH]1 [TDI01151, 6-(4-((1H-indazol-5-yl)amino)pyrimidin-2-yl)-N-cyclopropyl-1H-indole-2-carboxamide]
16	O=C(Nc1ccncc1)c1cc2ccc(-c3nccc(Nc4ccc5[nH]ncc5c4)n3)cc2[nH]1 [TDI01153, 6-(4-((1H-indazol-5-yl)amino)pyrimidin-2-yl)-N-(pyridin-4-yl)-1H-indole-2-carboxamide]
25	O=C(Nc1cnoc1)c1cc2ccc(-c3nccc(Nc4ccc5[nH]ncc5c4)n3)cc2[nH]1 [TDI01156, 6-(4-((1H-indazol-5-yl)amino)pyrimidin-2-yl)-N-(isoxazol-4-yl)-1H-indole-2-carboxamide]
54	O=C(Nc1cnccn1)c1cc2ccc(-c3nccc(Nc4ccc5[nH]ncc5c4)n3)cc2[nH]1 [TDI01160, 6-(4-((1H-indazol-5-yl)amino)pyrimidin-2-yl)-N-(pyrazin-2-yl)-1H-indole-2-carboxamide]
210	O=C(Nc1ccncn1)c1cc2ccc(-c3nccc(Nc4ccc5[nH]ncc5c4)n3)cc2[nH]1 [TDI01161, 6-(4-((1H-indazol-5-yl)amino)pyrimidin-2-yl)-N-(pyrimidin-4-yl)-1H-indole-2-carboxamide]
63	O=C(Nc1cccnc1)c1cc2ccc(-c3nccc(Nc4ccc5[nH]ncc5c4)n3)cc2[nH]1 [TDI01171, 6-(4-((1H-indazol-5-yl)amino)pyrimidin-2-yl)-N-(pyridin-3-yl)-1H-indole-2-carboxamide]
